Results as given in ChEMBL document CHEMBL3621157, “Design, synthesis and biological evaluation of novel 1,2,4-triazolo and 1,2,4-triazino[4,3-a]quinoxalines as potential anticancer and antimicrobial agents” (2015).
In brackets after ≈: the same amount, converted by molar mass.

Tests used:
Type in all cases: functional
PC-3 [1] = assay: Growth inhibition of human PC3 cells incubated for 48 hrs by sulforhodamine B assay; details: PC-3, 48 h
[2] = Growth inhibition of human BT549 cells incubated for 48 hrs by sulforhodamine B assay; details: BT-549, 48 h
Staphylococcus aureus = assay: Antimicrobial activity against Staphylococcus aureus DSM 1104 incubated at 37 degC for 24 hrs by cup diffusion method
Pseudomonas aeruginosa [3] = assay: Antimicrobial activity against Pseudomonas aeruginosa ATCC 10145 incubated at 37 degC for 24 hrs by cup diffusion method
Candida albicans [4] = assay: Antimicrobial activity against Candida albicans DSM 70014 incubated at 37 degC for 48 hrs by cup diffusion method
Pseudomonas aeruginosa [5] = assay: Antimicrobial activity against Pseudomonas aeruginosa ATCC 10145 incubated for 24 hrs by two-fold serial broth dilution method; details: ATCC 10145, 24 h
Pseudomonas aeruginosa [6] = assay: Antimicrobial activity against Pseudomonas aeruginosa ATCC 10145 incubated for 24 hrs followed by transfer of colonies to Muller-Hinton agar plate and measured after 18 hrs by two-fold serial broth dilution method
Escherichia coli = assay: Antimicrobial activity against Escherichia coli ATCC 11775 incubated for 24 hrs followed by transfer of colonies to Muller-Hinton agar plate and measured after 18 hrs by two-fold serial broth dilution method
Candida albicans [7] = assay: Antimicrobial activity against Candida albicans DSM 70014 incubated for 48 hrs by two-fold serial broth dilution method; details: DSM 70014, 48 h
[8] = Growth inhibition of human HOP92 cells at 10 uM incubated for 48 hrs by sulforhodamine B assay; details: HOP-92, 48 h, read-out: GI
[9] = Growth inhibition of human MOLT4 cells at 10 uM incubated for 48 hrs by sulforhodamine B assay; details: MOLT-4, 48 h, read-out: GI
[10] = Growth inhibition of human EKVX cells at 10 uM incubated for 48 hrs by sulforhodamine B assay; details: read-out: GI
HCT-116 = assay: Growth inhibition of human HCT116 cells at 10 uM incubated for 48 hrs by sulforhodamine B assay; details: HCT-116, 48 h, read-out: GI
KM12 = assay: Growth inhibition of human KM12 cells at 10 uM incubated for 48 hrs by sulforhodamine B assay; details: KM12, 48 h, read-out: GI
SF-268 = assay: Growth inhibition of human SF268 cells at 10 uM incubated for 48 hrs by sulforhodamine B assay; details: SF-268, 48 h, read-out: GI
A498 [11] = assay: Growth inhibition of human A498 cells at 10 uM incubated for 48 hrs by sulforhodamine B assay; details: A498, 48 h, read-out: GI
PC-3 [12] = assay: Growth inhibition of human PC3 cells at 10 uM incubated for 48 hrs by sulforhodamine B assay; details: PC-3, 48 h, read-out: GI
A549 = assay: Growth inhibition of human A549 cells incubated for 48 hrs by sulforhodamine B assay; details: A549, 48 h
[13] = Growth inhibition of human EKVX cells incubated for 48 hrs by sulforhodamine B assay
HOP-62 = assay: Growth inhibition of human HOP62 cells incubated for 48 hrs by sulforhodamine B assay; details: HOP-62, 48 h
NCI-H226 = assay: Growth inhibition of human NCI-H226 cells incubated for 48 hrs by sulforhodamine B assay; details: NCI-H226, 48 h
NCI-H460 = assay: Growth inhibition of human NCI-H460 cells incubated for 48 hrs by sulforhodamine B assay; details: NCI-H460, 48 h
[14] = Growth inhibition of human COLO205 cells incubated for 48 hrs by sulforhodamine B assay; details: COLO 205, 48 h
HT-29 = assay: Growth inhibition of human HT-29 cells incubated for 48 hrs by sulforhodamine B assay; details: HT-29, 48 h
SW-620 = assay: Growth inhibition of human SW620 cells incubated for 48 hrs by sulforhodamine B assay; details: SW-620, 48 h
[15] = Growth inhibition of human SF295 cells incubated for 48 hrs by sulforhodamine B assay; details: SF-295, 48 h
SNB-19 = assay: Growth inhibition of human SNB19 cells incubated for 48 hrs by sulforhodamine B assay; details: SNB-19, 48 h
U-251 = assay: Growth inhibition of human U251 cells incubated for 48 hrs by sulforhodamine B assay; details: U-251, 48 h
[16] = Growth inhibition of human LOXIMVI cells incubated for 48 hrs by sulforhodamine B assay; details: LOX IMVI
Malme-3M = assay: Growth inhibition of human MALME-3M cells incubated for 48 hrs by sulforhodamine B assay
M14 = assay: Growth inhibition of human M14 cells incubated for 48 hrs by sulforhodamine B assay; details: M14, 48 h
SK-MEL-2 = assay: Growth inhibition of human SK-MEL-2 cells incubated for 48 hrs by sulforhodamine B assay; details: SK-MEL-2, 48 h
IGROV-1 = assay: Growth inhibition of human IGROV1 cells incubated for 48 hrs by sulforhodamine B assay; details: IGROV-1, 48 h
OVCAR-3 = assay: Growth inhibition of human OVCAR3 cells incubated for 48 hrs by sulforhodamine B assay; details: OVCAR-3, 48 h
SK-OV-3 = assay: Growth inhibition of human SKOV3 cells incubated for 48 hrs by sulforhodamine B assay; details: SK-OV-3, 48 h
786-0 = assay: Growth inhibition of human 786-0 cells incubated for 48 hrs by sulforhodamine B assay; details: 786-0, 48 h
A498 [17] = assay: Growth inhibition of human A498 cells incubated for 48 hrs by sulforhodamine B assay; details: A498, 48 h
ACHN = assay: Growth inhibition of human ACHN cells incubated for 48 hrs by sulforhodamine B assay
UO-31 = assay: Growth inhibition of human UO31 cells incubated for 48 hrs by sulforhodamine B assay; details: UO-31, 48 h

Structure (SMILES): Clc1ccccc1-c1nnc2c(Cc3ccccc3)nc3ccccc3n12
- GI50 (PC-3 [1]): 5.19 µM
- GI50 [2]: 6.72 µM
- inhibition zone (IZ) (Staphylococcus aureus): 12 mm
- inhibition zone (IZ) (Pseudomonas aeruginosa [3]): 14 mm
- inhibition zone (IZ) (Candida albicans [4]): 16 mm
- MIC (Pseudomonas aeruginosa [5]): 50 µg/mL (≈ 135 µM)
- MBC (Pseudomonas aeruginosa [6]): 100 µg/mL (≈ 270 µM)
- MBC (Escherichia coli): 50 µg/mL (≈ 135 µM)
- MIC (Candida albicans [7]): 100 µg/mL (≈ 270 µM)
- inhibition of growth at 10 µM [8]: 50.1%
- inhibition of growth at 10 µM [9]: 60.4%
- inhibition of growth at 10 µM [10]: 48.1%
- inhibition of growth at 10 µM (HCT-116): 65.9%
- inhibition of growth at 10 µM (KM12): 51.1%
- inhibition of growth at 10 µM (SF-268): 47.5%
- inhibition of growth at 10 µM (A498 [11]): 61.1%
- inhibition of growth at 10 µM (PC-3 [12]): 60.9%
- GI50 (A549): 8.77 µM
- GI50 [13]: 5.96 µM
- GI50 (HOP-62): 12.4 µM
- GI50 (NCI-H226): 9.96 µM
- GI50 (NCI-H460): 3.49 µM
- GI50 [14]: 8.77 µM
- GI50 (HT-29): 9.15 µM
- GI50 (SW-620): 43.4 µM
- GI50 [15]: 12.3 µM
- GI50 (SNB-19): 27.8 µM
- GI50 (U-251): 5.18 µM
- GI50 [16]: 3.69 µM
- GI50 (Malme-3M): 23.8 µM
- GI50 (M14): 36.7 µM
- GI50 (SK-MEL-2): 55.8 µM
- GI50 (IGROV-1): 27.7 µM
- GI50 (OVCAR-3): 21.7 µM
- GI50 (SK-OV-3): 23.9 µM
- GI50 (786-0): 10.4 µM
- GI50 (A498 [17]): 1.8 µM
- GI50 (ACHN): 34.1 µM
- GI50 (UO-31): 25 µM
